Like-named read-outs stand apart in the source and are kept apart here.
Tests used:
[1] = test system: 20-HETE formation (CYP4) in RLM; assay: Inhibition of 20-HETE formation at 250 or 500 nM in RLM microsomal incubations; format: biochemical, rat; details: 500 nM compound; RLM 300 μg/ml
Method in brief: (§1)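 20-HETE formation, measured by UPLC-MS/MS after ether extraction, is reported as percentage of vehicle control, triplicates. Incubations: 300 μg/ml microsomal protein or 25 pmol/mL rCYP4F2, AA 100 μM, NADPH 1 mM, 20 min at 37° C.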

rCYP4F2 = molecular target: T1, rCYP4F2 (Homo sapiens, UniProt P78329); assay: Inhibition of 20-HETE formation at 250 or 500 nM in rCYP4F2 incubations; format: biochemical; details: 500 nM compound; rCYP4F2 25 pmol/mL; read-out: rCYP4F2 % inh. @ 500 nM
T1 sequence (P78329 5-520): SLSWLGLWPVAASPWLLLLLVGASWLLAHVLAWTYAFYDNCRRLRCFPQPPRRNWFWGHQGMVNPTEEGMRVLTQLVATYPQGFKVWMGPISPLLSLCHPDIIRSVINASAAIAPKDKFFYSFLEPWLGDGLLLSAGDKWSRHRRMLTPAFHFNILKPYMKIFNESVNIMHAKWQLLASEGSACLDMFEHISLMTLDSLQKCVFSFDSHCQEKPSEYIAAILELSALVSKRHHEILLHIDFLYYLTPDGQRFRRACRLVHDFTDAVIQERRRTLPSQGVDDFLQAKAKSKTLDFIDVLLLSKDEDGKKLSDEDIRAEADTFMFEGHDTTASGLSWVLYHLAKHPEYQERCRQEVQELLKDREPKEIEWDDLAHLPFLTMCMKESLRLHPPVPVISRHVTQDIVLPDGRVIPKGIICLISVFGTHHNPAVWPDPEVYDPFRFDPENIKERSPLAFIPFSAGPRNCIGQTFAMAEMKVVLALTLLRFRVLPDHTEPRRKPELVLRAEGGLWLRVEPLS
Method in brief: as §1

[2] = Turbidometric solubility determination; format: physicochemical; details: PBS with 1% DMSO, aqueous buffer, kinetic from dmso stock, room temperature
Method in brief: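 Kinetic turbidimetric solubility: DMSO stocks diluted 1:100 into PBS in triplicate to give 0–600 μM in 1% DMSO. Shaken 2 h at room temperature, then OD620 read. Solubility limit taken as the concentration giving a statistically significant absorbance rise above background.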

[3] = test system: 20-HETE formation (CYP4) in HLM; assay: Inhibition of 20-HETE formation at 250 or 500 nM in HLM microsomal incubations; format: biochemical, human; details: 500 nM compound; HLM 300 μg/ml, AA 100 μM, 20 min
Method in brief: as §1

MDR1 (P-gp) = assay: BBB penetration potential, MDR1-MDCK permeability; format: in vitro ADME; details: dog; for Papp A→B at 120 min, 5 μM: apical to basolateral, pH 7.4, read-out: BBB penetration potential MDCK A-B 10−6 cm/s; for Papp B→A at 120 min, 5 μM: basolateral to apical, pH 7.4, read-out: BBB penetration potential MDCK B-A 10−6 cm/s
Description: BBB penetration potential assessment data in Table 1 was obtained as follows. MDR1-MDCK cell monolayers were grown to confluence on collagen-coated, microporous membranes in 12-well assay plates. Atenolol, propranolol and digoxin were used as control to assess plate quality. The permeability assay buffer was Hanks' balanced salt solution containing 10 mM HEPES and 15 mM glucose at a pH of 7.4. The buffer in the receiver chamber also contained 1% bovine serum albumin. The dosing solution concentration was 5 μM of test article in the assay buffer. Cell monolayers were dosed on the apical side (A-to-B) or basolateral side (B-to-A) and incubated at 37° C. with 5% CO2 in a humidified incubator. Samples were taken from the donor and receiver chambers at 120 minutes. Each determination was performed in duplicate the flux of lucifer yellow was also measured post-experimentally for each monolayer to ensure no damage was inflicted to the cell monolayers during the flux period. All samples were assayed by LC-MS/MS using electrospray ionization using a PE SCIEX API 4000 spectrometer and total run time of 1 min. Analytical method/conditions were: Liquid Chromatography Column: Waters ACQUITY UPLC BEH Phenyl 30×2.1 mm, 1.7 m; M.P. Buffer: 25 mM ammonium formate buffer, pH 3.5; Aqueous Reservoir (A): 90% water, 10% buffer; Organic Reservoir (B): 90% acetonitrile, 10% buffer; Flow Rate: 0.7 mL/minute; gradient program: 99% A (t=0 min), 1% A (t=0.65 min), 1% A (t=0.75 min), 99% A (t=0.8 min), 99% A (t=1 min); 5 μL injection volume
The apparent permeability (Papp) and percent recovery were calculated as follows: Papp=(dCr/dt)×Vr/(A×CA) (1) Percent Recovery=100×((Vr×Cr^final)+(Vd×Cd^final))/(Vd×CN) (2)
wherein: • dCr/dt is the slope of the cumulative concentration in the receiver compartment versus time in μMs^−1; • Vr is the volume of the receiver compartment in cm^3; • Vd is the volume of the donor compartment in cm^3; • A is the area of the insert (1.13 cm^2 for 12-well); • CA is the average of the nominal dosing concentration and the measured 120 minute donor concentration in μM; • CN is the nominal concentration of the dosing solution in μM; • Cr^final is the cumulative receiver concentration in μM at the end of the incubation period; • Cd^final is the concentration of the donor in μM at the end of the incubation period. Efflux ratio (ER) is defined as Papp (B-to-A)/Papp (A-to-B) Interpretation Brain Penetration Potential Classification: • Papp (A-to-B)≥3.0 and ER<3.0: High • Papp (A-to-B)≥3.0 and 10>ER≥3.0: Moderate • Papp (A-to-B)≥3.0 and ER≥10, or Papp (A-to-B)<3.0 Low

[4] = test system: 20-HETE formation (CYP4) in HLM; assay: IC50 determination, 20-HETE formation in HLM; format: biochemical, human; details: HLM 300 μg/ml, AA 100 μM, 12 concentrations
Description: Microsomal incubations contained HLM, RLM (300 μg/ml), AA (100 μM), NADPH (1 mM) and test compounds at 12 concentrations (0.1 nM-50 μM) in a 1 ml total volume in microsomal incubation buffer (0.12 M potassium phosphate buffer containing 5 mM magnesium chloride). Reaction was started by adding NADPH to the incubates and was carried out at 37° C. in a shaking water bath for 20 min. Reaction was stopped by placing tubes on ice, followed by adding 12.5 μl 20-HETE-d6 as internal standard to each sample. Microsomal incubations were extracted with 3 ml ethyl ether twice, dried down under nitrogen gas and reconstituted in 125 μl 80:20 methanol:deionized H2O for analysis. 20-HETE formation was quantified using the validated UPLC-MS/MS assay described above and normalized by vehicle group. HET0016 (250 nM) was used as positive control. Incubates without NADPH group served as the negative control. IC50 was determined by fitting the dose-response curve using Graphpad Prism nonlinear regression.

[5] = test system: 20-HETE formation (CYP4) in RKM; assay: Inhibition of 20-HETE formation at 250 or 500 nM in RKM microsomal incubations; format: biochemical, rat; details: 500 nM compound; RKM 300 μg/ml
Description: To screen the inhibitory effects against 20-HETE formation, compounds were screened in HLM, RLM, RKM and rCYP4F2 microsomal incubations. Compounds dissolved in either 100% methanol or 100% DMSO to yield 10 mM stock solution. Microsomal incubations containing HLM, RLM, RKM (300 μg/ml) or rCYP4F2 (25 pmol/mL), AA (100 μM), NADPH (1 mM) treated with test compounds at various concentrations (500 nM or 250 nM) in a 1 ml total volume in incubation buffer (0.12 M potassium phosphate buffer containing 5 mM magnesium chloride). Reaction was started by adding NADPH to the incubates and was carried out at 37° C. in a shaking water bath for 20 min. Reaction was stopped by placing tubes on ice, followed by adding 125 μl 20-HETE-d6 as internal standard to each sample. Microsomal incubations were extracted with 3 ml ethyl ether twice, dried down under nitrogen gas and reconstituted in 125 μl 80:20 methanol:deionized H2O for analysis. 20-HETE formation was quantified using a validated UPLC-MS/MS assay and normalized by vehicle group. Each compound had three replications (n=3). Vehicle group was used as control to calculate percentage of 20-HETE formation rate. HET0016 (250 nM) was used as positive control. Incubates without NADPH group served as the negative control. An Acquity ultra performance LC autosampler (Waters, Milford, MA) was used to isolate 20-HETE on an UPLC BEH C18, 1.7 μm (2.1×100 mm) reversed-phase column (Waters, Milford, MA) protected by a guard column (2.1×5 mm; Waters, Milford, MA) of the same packing material. Column temperature was maintained at 55° C. Mobile phases consisted of 0.005% acetic acid, 5% acetonitrile in deionized water (A) and 0.005% acetic acid in acetonitrile (B). The flow rate for mobile phases is 0.5 ml/min. The initial mixture of mobile phase was 65:35 of A and B. Mobile phase B increased at 0.4 minutes after injection from 35% to 70% in a linear gradient over 4 minutes, and again increased to 95% over 0.5 minutes where it remained for 0.3 minutes. This was followed by a linear return to initial conditions over 0.1 minutes with a 1.5 minute pre-equilibration period prior to the next sample run. Total run time was 6.4 minutes for each injection. Injection volumes were 7.5 μl. Mass spectrometric analysis was carried out using a TSQ Quantum Ultra (Thermo Fisher Scientific, San Jose, CA) triple quadrupole mass spectrometer using heated electrospray ionization (HESI). Mass spectrometer was operated in negative selective reaction monitoring (SRM) mode with unit resolutions at both Q1 and Q3 set at 0.70 Da full width at half maximum. Scan time was set at 0.01 s and collision gas pressure was 1.3 mTorr. Quantitation of 20-HETE by SRM was performed by monitoring the m/z. Analytical data was acquired and analyzed using Xcaliber 3.0 data system (ThermoFinnigan, San Jose, CA).

| SMILES | RLM % inh. @ 500 nM [1] [%] | inhibition at 0.5 µM (rCYP4F2) [%] | solubility at 2 h ([2]; OD620, read-out: Max Solub) [µM] | HLM % inh. @ 500 nM [3] [%] | Papp A→B at 120 min, 5 μM (MDR1 (P-gp)) [×10⁻⁶ cm/s] | Papp B→A at 120 min, 5 μM (MDR1 (P-gp)) [×10⁻⁶ cm/s] | IC50 [4] [µM] | RKM % inh. @ 500 nM [5] [%] | solubility at 2 h ([2]; read-out: Solubility_ug/mL) [µg/mL] |
| --- | --- | --- | --- | --- | --- | --- | --- | --- | --- |
| Cc1ccc(CC2CCN(c3cn[nH]c3)CC2)cc1 [Compound 116, 4-(4-Methylbenzyl)-1-(1H-pyrazol-4-yl)piperidine] | 59.60 | 89.3 | 71 | 86.40 | 77.4 | 70.3 | – | – | – |
| CC(=O)N(C)c1ccc(C2CCN(c3cn[nH]c3)CC2)c(F)c1 [Compound 69, N-(4-(1-(1H-Pyrazol-4-yl)piperidin-4-yl)-3-fluorophenyl)-N-methylacetamide] | 27.70 | 57.9 | 304 | 85.6 | 22.3 | 44.4 | – | – | – |
| O=C(c1ccc(C2CCN(c3cn[nH]c3)CC2)c(F)c1)N1CCCC1 [Compound 81, (4-(1-(1H-Pyrazol-4-yl)piperidin-4-yl)-3-fluorophenyl)(pyrrolidin-1-yl)methanone] | 19.30 | 66 | 353 | 83.1 | – | – | 0.0474 | – | – |
| CC(=O)Nc1ccc(C2CCN(c3ccn[nH]3)CC2)cc1 [Compound 29, N-(4-(1-(1H-Pyrazol-5-yl)piperidin-4-yl)phenyl)acetamide] | 38.00 | 55 | > 600 | 60.00 | – | – | 0.17 | 7.00 | 171 |
| COc1ccc(C2CCN(c3cn[nH]c3)CC2)cn1 [Compound 32, 5-(1-(1H-Pyrazol-4-yl)piperidin-4-yl)-2-methoxypyridine] | 0.00 | 67 | 391 | 59.00 | – | – | 0.13 | 25.00 | 101 |
| Cc1cccc(C2CCN(c3ccn[nH]3)CC2)c1 [Compound 33, 1-(1H-Pyrazol-5-yl)-4-(m-tolyl)piperidine] | 12.00 | 69 | – | 72.00 | – | – | 0.18 | 16.00 | – |
| Cc1ccccc1C1CCN(c2cn[nH]c2)CC1 [Compound 36, 1-(1H-Pyrazol-4-yl)-4-(o-tolyl)piperidine] | 0.00 | 61 | 752 | 46.00 | – | – | 0.65 | 4.00 | – |
